Reference: patent US20250090510A1, “eIF4G1-eIF1 INHIBITORS AND USE THEREOF” (YEDA RESEARCH AND DEVELOPMENT CO. LTD., priority 2022, published 2025)

Experiments:
[1] = target: rabbit reticulocyte lysate; experiment: In-vitro translation of capped firefly luciferase mRNA; type: biochemical; conditions: 10 minutes pre-incubation, 90 minutes at 30° C.
eIF2α S52A mutant cells = experiment: Polysome profiling and real-time PCR in eIF2α S52A mutant cells; type: cell-based, mouse; conditions: i14G1-10 30 μM, i14G1-12 15 μM, 3 h; for translation of ISR genes in polysome fractions: S52A cells; for overall translation, polysome to monosome ratio (P/M): S52A mutant cells
From the text: FIGS. 6A-G: i14G1-10 and i14G1-12 uncover roles of the eIF4G1-eIF1 complex in ISR, cell cycle and cell survival. […] (6B). Ribo-seq and TI-seq read tracks of representative stress response-associated mRNAs (i.e., ATF3, and GADD45A) in DMSO (black), i14G1-10 (red), and i14G1-12 (green) samples. The red triangle represents 5′UTR TIS codons and the green denotes annotated TIS. Black arrows show the translation direction. (6C) Mouse embryonic fibroblasts (MEFs) control cells and eIF2αS52A mutant MEF cells were treated with Thapsigargin (1 μM) for 1h. Cells were lysed, and cell lysate was analyzed using western blot with the indicated antibodies. (6D) Control cells and eIF2αS52A mutant MEF cells were treated with DMSO, i14G1-10 (30 μM) or i14G1-12 (15 μM) for 3 h, cells were lysed in polysome buffer and loaded onto sucrose density gradient for polysome separation followed by fractionation. The graph presents the polysomes vs monosomes ratio in control MEFs (purple) and eIF2αS52A mutant cells (blue). (6E) Fractions were pooled (from 6D) according to the polysome profile as free (grey), light (blue), and heavy (yellow) polysomal fractions. cDNA was prepared from each fraction pool and real-time PCR was performed for the indicated stress response genes. The data are shown as mean±SEM, n=3. The asterisks denote statistically significant differences compared to DMSO, according to Student's t-tests (one-tailed, paired), *p<0.05; **p<0.01. (6F-G). HEK293T cells were transfected with HA-eIF1 or HA-eIF4E, 48 h later, treated with (6F) 1 μM Thapsigargin or (6G) 250 nM Torin-1. Cell lysates were subjected to immunoprecipitation with HA-agarose beads to precipitate HA-eIF1 and HA-eIF4E to check for co-IP of eIF4G1 using western blot (left). The graphs on the right represent the relative chemiluminescence signal intensity of the co-immunoprecipitation of eIF4G1 with HA-eIF1 or HA-eIF4E of 4 independent experiments. The asterisks denote statistically significant difference compared to DMSO *p<0.05; **p<0.01.
FIGS. 7A-E: (7A) Ribo-seq and TI-seq read tracks of representative stress response-associated mRNAs (DDIT3 and GADD34) in DMSO (black), i14G1-10 (red), and i14G1-12 (green) samples. The red triangle represents 5′UTR TIS codons and the green denotes annotated TIS. Black arrows show the translation direction. […] The graphs in the lower panel are the quantification of ATF4's uORF1′, uORF1, uORF2, and main-ORF reads of the Ribo-seq data. The asterisks denote statistically significant difference compared to DMSO, according to Student's t-tests (one-tailed, paired). **p<0.01, ***p<0.001, ****p<0.0001. (7C) HEK293T cells were treated with DMSO, i14G1-10, and i14G1-12 for 3 h, lysed and subjected to sucrose gradient sedimentation and fractionation. […]

Row | SMILES | IC50 [1] | translation of ISR genes in polysome fractions (eIF2α S52A mutant cells) | overall translation, polysome to monosome ratio (P/M) (eIF2α S52A mutant cells)
1 | Cn1ccnc1S/C(=C/C=C(C#N)C#N)c1ccc(Cl)cc1 [i14G1-12] | 4.14 µM | upregulated | further inhibited
2 | O=C(/C=C/Sc1ccc(C(F)(F)F)cn1)c1ccccc1 [i14G1-10] | 5.44 µM | upregulated | not significantly
